{
  "source": "patent US6566409B1",
  "about": "“Lock and key micelles” (University of South Florida, priority 1994, dated 2003)",
  "experiment": "Solubility of barbituric acid in CD3CN, free and with bisamidopyridine dendrimers",
  "assay_type": "physicochemical",
  "description": "Chemical shift changers for the complexed NH moieties, even in this competing solvent, corresponded to ca. 0.1 ppm for both generation dendrimers.",
  "data": [
    {"smiles": "O=C1CC(=O)NC(=O)N1", "note": "[barbituric acid]", "values": [
      {"measurement": "solubility in CD3CN", "setting": "free", "value": "sparingly soluble"},
      {"measurement": "solubility in CD3CN in the presence of the bisamidopyridine dendrimers", "setting": "with bisamidopyridine dendrimers", "value": "freely soluble to the limit of complementary complexation"}
    ]}
  ]
}
